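1) Cells in 96-well plates. 2) Compound, 48 h, 5 concentrations. 3) Linear interpolation between surrounding doses. 4) Unreached endpoint = highest concentration. The concentration for 50% growth inhibition is given as GI50. TGI is the concentration that stops growth completely.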
What was measured:
Assay in all cases: inhibition of tumour cell growth, NCI panel, 48 h
OVCAR-5 ovarian = tested on: OVCAR-5 ovarian
HOP-92 NSCLC = tested on: HOP-92 NSCLC
SN12C renal = tested on: SN12C renal
SK-OV-3 ovarian = tested on: SK-OV-3 ovarian
SR leukemia = tested on: SR leukemia
PC-3 prostate = tested on: PC-3 prostate
K-562 leukemia = tested on: K-562 leukemia
IGROV1 ovarian = tested on: IGROV1 ovarian
DU-145 prostate = tested on: DU-145 prostate
SK-MEL-28 melanoma = tested on: SK-MEL-28 melanoma

| Compound | GI50 (OVCAR-5 ovarian) | TGI (OVCAR-5 ovarian) | GI50 (HOP-92 NSCLC) | TGI (HOP-92 NSCLC) | GI50 (SN12C renal) | TGI (SN12C renal) | GI50 (SK-OV-3 ovarian) | TGI (SK-OV-3 ovarian) | GI50 (SR leukemia) | TGI (SR leukemia) | GI50 (PC-3 prostate) | TGI (PC-3 prostate) | GI50 (K-562 leukemia) | TGI (K-562 leukemia) | GI50 (IGROV1 ovarian) | TGI (IGROV1 ovarian) | GI50 (DU-145 prostate) | TGI (DU-145 prostate) | GI50 (SK-MEL-28 melanoma) | TGI (SK-MEL-28 melanoma) |
| --- | --- | --- | --- | --- | --- | --- | --- | --- | --- | --- | --- | --- | --- | --- | --- | --- | --- | --- | --- | --- |
| COc1ccc(/C=C\c2cc(OC)c(OC)c(OC)c2)cc1NC(=O)[C@@H](N)CO | < 0.023 µM | > 100 µM | 0.0103 µM | 64.5 µM | 0.0468 µM | > 100 µM | < 0.0124 µM | > 100 µM | < 0.015 µM | > 100 µM | 0.0188 µM | > 100 µM | < 0.01 µM | > 100 µM | 0.0273 µM | > 92.6 µM | 0.0288 µM | > 100 µM | – | – |
| CCN(CC)c1ccc2[nH]c3c(C(N)=O)cc(=O)c(=O)c=3oc2c1 | 3.66 µM | 33.4 µM | 2.82 µM | 7.83 µM | 2.09 µM | > 100 µM | – | – | 2.84 µM | 8.74 µM | 2.52 µM | > 100 µM | 1.93 µM | > 100 µM | 0.31 µM | 1.24 µM | 1.87 µM | 7.39 µM | 3.76 µM | 17.2 µM |
| O=C(CCl)Nc1ccccc1SCc1cc(Cl)cc2c1OCOC2 | 13.5 µM | 27.7 µM | 3.17 µM | 17.9 µM | 6.69 µM | 21 µM | 12.2 µM | 33.5 µM | – | – | 11.4 µM | 25.9 µM | 3.35 µM | 25.1 µM | 2.27 µM | 5.62 µM | 15.7 µM | 29.4 µM | 13.5 µM | 26.8 µM |
| COc1cc(/C=C2\CC(C)CC3C2=NN(c2ccccc2)C3c2cc(OC)c(OC)c(OC)c2)cc(OC)c1OC (stereo not drawn) | 53.7 µM | > 100 µM | 13.6 µM | 37.1 µM | 19.8 µM | > 100 µM | 9.14 µM | 41 µM | – | – | 16.9 µM | > 100 µM | 6.4 µM | > 100 µM | 20.2 µM | > 100 µM | 15.4 µM | 45.7 µM | 11.2 µM | 39.7 µM |
| CCOC(=O)c1[nH]c2cccc3c2c1CC(Br)C3=O (stereo not drawn) | – | 34.5 µM | – | 33.6 µM | – | 30.9 µM | – | 54.7 µM | – | 4.99 µM | – | 33 µM | – | – | – | 20.4 µM | – | 30.4 µM | – | 38.4 µM |
| Cc1cc(S(=O)(=O)Nc2nnc(-c3ccco3)c(-c3ccco3)n2)c(SCc2ccccc2)cc1Cl | 25.6 µM | 49.8 µM | 21.5 µM | 45.4 µM | – | – | – | – | 19.4 µM | 40 µM | 28 µM | 57 µM | 28.2 µM | > 100 µM | 32.4 µM | > 100 µM | 17 µM | 32.5 µM | 20.7 µM | 40.5 µM |
| CN(C)CCCNC(=O)c1cc(NC(=O)c2cc(NC(=O)CCCN3c4ccccc4C=Cc4ccccc43)cn2C)cn1C | 19.7 µM | 46.9 µM | 10 µM | 78.7 µM | 13.8 µM | 43 µM | 21.9 µM | > 100 µM | – | – | 5.33 µM | > 100 µM | 2.12 µM | 4.97 µM | 3.36 µM | 8.8 µM | 10.6 µM | 35.4 µM | – | – |
| O=P(Oc1ccccc1)(Oc1ccccc1)C(O)c1ccccc1 (stereo not drawn) | > 100 µM | > 100 µM | – | – | > 100 µM | > 100 µM | > 100 µM | > 100 µM | 62.3 µM | > 100 µM | 35.8 µM | > 100 µM | 46.8 µM | > 100 µM | 37.2 µM | > 100 µM | > 100 µM | > 100 µM | 85.7 µM | > 100 µM |
| CC(C)SC1SCC2C(=O)N(C)C3(CC3C)C(=O)OCC(NC(=O)c3nc4ccccc4cc3O)C(=O)NC(C)C(=O)N(C)C1C(=O)N(C)C1(CC1C)C(=O)OCC(NC(=O)c1nc3ccccc3cc1O)C(=O)NC(C)C(=O)N2C (stereo not drawn) | – | – | – | < 0.0001 µM | – | – | – | 4.92 µM | – | < 0.0001 µM | – | < 0.0001 µM | – | < 0.0001 µM | – | – | – | > 100 µM | – | < 0.0001 µM |
| O=C(Oc1cccc(Nc2ncnc3ccccc23)c1)c1ccccc1Cl | 32.3 µM | > 100 µM | – | – | 15.5 µM | 49.6 µM | 66.8 µM | > 100 µM | 65.7 µM | > 100 µM | 17.8 µM | 45.9 µM | 43.1 µM | > 100 µM | 14.9 µM | > 100 µM | 22.3 µM | > 100 µM | 48.7 µM | > 100 µM |
| CC(C)(C)[Si](C)(C)OC1[C@@H](O[Si](C)(C)C(C)(C)C)[C@@H](CNC(=O)NC(=O)NC(=O)CI)O[C@H]1n1cnc2c(NC(=O)Nc3ccccc3)ncnc21 (stereo partly drawn) | 2.71 µM | 12.2 µM | – | – | 6.49 µM | 15.6 µM | 10.4 µM | 27.9 µM | 0.0447 µM | 0.159 µM | 0.385 µM | 3.42 µM | 3.55 µM | 8.5 µM | 0.113 µM | 0.246 µM | 8.67 µM | 20 µM | 9.69 µM | 22.8 µM |
| COc1cccc2c(Nc3ccc(C(=O)NCCNCCO)cc3)cc(-c3ccccc3)nc12 | 76.7 µM | > 100 µM | 16 µM | 51.4 µM | 34.3 µM | > 100 µM | 86.7 µM | > 100 µM | – | – | 35.4 µM | > 100 µM | 22.3 µM | 64.9 µM | 20.4 µM | 48.7 µM | 58.7 µM | > 100 µM | 35.2 µM | > 100 µM |
| COc1cc2c3c(n(CCCO)c(=O)c2cc1OC)-c1cc2c(cc1C3=O)OCO2 | > 79.2 µM | > 100 µM | 0.226 µM | 11.4 µM | 3.53 µM | > 54.3 µM | 55.3 µM | > 100 µM | – | – | > 24.7 µM | > 81.7 µM | 6.96 µM | > 47 µM | 17.4 µM | > 100 µM | 3.22 µM | > 44.3 µM | > 31.2 µM | > 100 µM |
| C=C(CN1CCc2ccccc2C1)c1ccc(/C=C/C(=O)Nc2ccccc2N)cc1 | 12.8 µM | > 100 µM | 8 µM | 52.8 µM | 4.49 µM | 31 µM | 66 µM | > 100 µM | – | – | 4.05 µM | > 100 µM | 5.49 µM | > 100 µM | 4.46 µM | > 100 µM | 5.98 µM | > 100 µM | 46.7 µM | > 100 µM |

Source: PubChem BioAssay (NCI)
